The values that follow come from patent publication US20260216170A1, “TETRAHYDROISOQUINOLINE HETEROBIFUNCTIONAL BCL-XL DEGRADERS” (Treeline Biosciences, Inc., priority 2023, published 2026).

For the experiment, the target named is T1, Human BCL-XL protein (N-terminal HiBiT tagged BCL-XL expressed in HT1080 cells) (Homo sapiens, UniProt Q07817).
T1 construct: expressed in transfected cells; host or cells: HT-1080 (ATCC CCL-121), stably transduced with lentivirus pLV-UBC-N-HiBiT-BCL-XL-PGK-puro and selected with puromycin
T1 sequence (Q07817 whole entry): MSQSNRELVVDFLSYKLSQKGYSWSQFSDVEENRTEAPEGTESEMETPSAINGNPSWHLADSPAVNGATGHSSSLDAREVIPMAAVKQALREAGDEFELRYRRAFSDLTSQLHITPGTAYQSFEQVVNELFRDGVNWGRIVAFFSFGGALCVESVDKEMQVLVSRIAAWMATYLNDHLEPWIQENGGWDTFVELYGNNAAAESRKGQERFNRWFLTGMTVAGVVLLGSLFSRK
The experiment can be described thus: HiBiT Based Degradation Assay. The class given is cell-based. The settings on record: 24 hours incubation; for DC50: BCL-XL degradation, HT1080 cells expressing N-HiBiT-BCL-XL, normalized with DMSO control, geometric mean for multiple data points, read-out: EC50 (24 h); for Ymin (24 h): bottom of BCL-XL degradation curve (remaining HiBiT-BCL-XL signal vs DMSO control), HT1080 cells. The essentials: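 BCL-XL degradation was read as Nano-Glo HiBiT lytic luminescence relative to DMSO after a 24 h compound treatment of HT1080 cells carrying stably integrated N-HiBiT-BCL-XL. EC50 values come from four-parameter logistic curves, with the hook-curve minimum fixed as bottom, and are geometric means where tested repeatedly.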
(In general: HiBiT is a short tag that completes a luciferase, so light tracks the accessible tagged protein.)

For the molecule `Cc1cc(OC[C@@H]2C[C@H]2C2CCN(CC(=O)Nc3ccc4c(C5CCC(=O)NC5=O)nn(C)c4c3)CC2)ccc1-c1ccc(N2CCc3cccc(C(=O)Nc4nc5ccccc5s4)c3C2)nc1C(=O)O` (single isomer, unassigned) [Compound 1003b], the DC50 was below 10 nM and the “Ymin (24 h)” value is reported as “B (30% ≤ Ymin < 50%)”.
On the same counts, the results for `Cc1c(OC2CC3(CCN(CC(=O)Nc4ccc5c(C6CCC(=O)NC6=O)nn(C)c5c4)CC3)C2)cccc1-c1ccc(N2CCc3cccc(C(=O)Nc4nc5ccccc5s4)c3C2)nc1C(=O)O` (stereo not drawn) [Compound 113, 6-[8-(1,3-benzothiazol-2-ylcarbamoyl)-3,4-dihydro-1H-isoquinolin-2-yl]-3-[3-[[7-[2-[[3-(2,6-dioxo-3-piperidyl)-1-methyl-indazol-6-yl]amino]-2-oxo-ethyl]-7-azaspiro[3.5]nonan-2-yl]oxy]-2-methyl-phenyl]pyridine-2-carboxylic acid] are below 10 nM and “B (30% ≤ Ymin < 50%)”.
Consider `Cc1c(OC2CC3(CCN(CC(=O)Nc4ccc5c(C6CCC(=O)NC6=O)nn(C)c5c4F)CC3)C2)cccc1-c1ccc(N2CCc3ccnc(C(=O)Nc4nc5ccccc5s4)c3C2)nc1C(=O)O` (stereo not drawn) [Compound 204, 6-(8-(benzo[d]thiazol-2-ylcarbamoyl)-3,4-dihydro-2,7-naphthyridin-2(1H)-yl)-3-(3-((7-(2-((3-(2,6-dioxopiperidin-3-yl)-7-fluoro-1-methyl-1H-indazol-6-yl)amino)-2-oxoethyl)-7-azaspiro[3.5]nonan-2-yl)oxy)-2-methylphenyl)picolinic acid], for which the DC50 was below 10 nM and the “Ymin (24 h)” value is given as “B (30% ≤ Ymin < 50%)”.
Regarding `COc1c(NC(=O)CN2CCC(CC[C@H](C)Oc3ccc(-c4ccc(N5CCc6cccc(C(=O)Nc7nc8ccccc8s7)c6C5)nc4C(=O)O)c(C)c3)CC2)ccc2c(C3CCC(=O)NC3=O)nn(C)c12` (single isomer, unassigned) [Compound 223a], the DC50 was in the range of 10 to 100 nM and the “Ymin (24 h)” value is “B (30% ≤ Ymin < 50%)”.
With `Cc1c(OC[C@@H]2C[C@H]2C2CCN(CC(=O)Nc3ccc4c(C5CCC(=O)NC5=O)nn(C)c4c3)CC2)cccc1-c1ccc(N2CCc3cccc(C(=O)Nc4nc5ccccc5s4)c3C2)nc1C(=O)O` (single isomer, unassigned) [Compound 1001a], the DC50 was 10 to 100 nM and the “Ymin (24 h)” value is “B (30% ≤ Ymin < 50%)”.
Take `Cc1c(OC[C@H]2C[C@@H]2CC2CCN(CC(=O)Nc3ccc4c(C5CCC(=O)NC5=O)nn(C)c4c3)CC2)cccc1-c1ccc(N2CCc3cccc(C(=O)Nc4nc5ccccc5s4)c3C2)nc1C(=O)O` (single isomer, unassigned) [Compound 1004a]: the DC50 was 10 to 100 nM and the “Ymin (24 h)” value was “B (30% ≤ Ymin < 50%)”.
The like results for `Cc1cc(O[C@@H](C)CCC2CCN(CC(=O)Nc3ccc4c(C5CCC(=O)NC5=O)nn(C)c4c3)CC2)ccc1-c1ccc(N2CCc3ccnc(C(=O)Nc4nc5ccccc5s4)c3C2)nc1C(=O)O` (single isomer, unassigned) [Compound 133b] were, in that order, 10 to 100 nM and “A (Ymin < 30%)”.
Take `Cn1nc(C2CCC(=O)NC2=O)c2ccc(NC(=O)CN3CCC4(CC3)CC(Oc3cccc(-c5ccc(N6CCc7cccc(C(=O)Nc8nc9ccccc9s8)c7C6)nc5C(=O)O)c3C(F)(F)F)C4)nc21` (stereo not drawn) [Compound 192, 6-(8-(benzo[d]thiazol-2-ylcarbamoyl)-3,4-dihydroisoquinolin-2(1H)-yl)-3-(3-((7-(2-((3-(2,6-dioxopiperidin-3-yl)-1-methyl-1H-pyrazolo[3,4-b]pyridin-6-yl)amino)-2-oxoethyl)-7-azaspiro[3.5]nonan-2-yl)oxy)-2-(trifluoromethyl)phenyl)picolinic acid]: the DC50 was below 10 nM and the “Ymin (24 h)” value is “B (30% ≤ Ymin < 50%)”.
As to `Cc1cc(OCC2CC3(CCN(CC(=O)Nc4ccc5c(C6CCC(=O)NC6=O)nn(C)c5c4)CC3)C2)ccc1-c1ccc(N2CCc3ccnc(C(=O)Nc4nc5ccccc5s4)c3C2)nc1C(=O)O` (stereo not drawn) [Compound 135, 6-[8-(1,3-benzothiazol-2-ylcarbamoyl)-3,4-dihydro-1H-2,7-naphthyridin-2-yl]-3-[4-[[7-[2-[[3-(2,6-dioxo-3-piperidyl)-1-methyl-indazol-6-yl]amino]-2-oxo-ethyl]-7-azaspiro[3.5]nonan-2-yl]methoxy]-2-methyl-phenyl]pyridine-2-carboxylic acid], the DC50 was below 10 nM and the “Ymin (24 h)” value is reported as “A (Ymin < 30%)”.
Consider `Cc1c(-c2ccc(N3CCc4cccc(C(=O)Nc5nc6ccccc6s5)c4C3)nc2C(=O)O)cccc1N(C)CCCC1CCN(CC(=O)Nc2ccc3c(C4CCC(=O)NC4=O)nn(C)c3c2)CC1` (stereo not drawn) [Compound 220], for which the DC50 lay in the range of 10 to 100 nM and the “Ymin (24 h)” value was “C (50% ≤ Ymin < 70%)”.
Take `Cn1nc(C2CCC(=O)NC2=O)c2ccc(NC(=O)CN3CCC4(CC3)CC(Oc3ccc(-c5ccc(N6CCc7ccnc(C(=O)Nc8nc9ccccc9s8)c7C6)nc5C(=O)O)c(C(F)(F)F)c3)C4)nc21` (stereo not drawn) [Compound 206]: the DC50 fell in the range of 10 to 100 nM and the “Ymin (24 h)” value is on record as “B (30% ≤ Ymin < 50%)”.
The like results for `C[C@@H]1C[C@@H](CCCOc2ccc(-c3ccc(N4CCc5cccc(C(=O)Nc6nc7ccccc7s6)c5C4)nc3C(=O)O)c(C(F)(F)F)c2)CCN1CC(=O)Nc1ccc2c(C3CCC(=O)NC3=O)nn(C)c2c1` (stereo partly drawn) [Compound 209d] were, in that order, below 10 nM and “B (30% ≤ Ymin < 50%)”.
